Values quoted from earlier work, collected in patent US6906047B2, “Aqueous ifosfamide composition” (Gensia Sicor Pharmaceuticals, Inc., priority 2001, dated 2005).

SMILES: O=P1(NCCCl)OCCCN1CCCl (stereo not shown) [ifosfamide, 3-(2-chloroethyl)-2-[(2-chloroethylamino)]-tetrahydro-2H-1,3,2-oxazaphosphorin-2-oxide]
- solubility of ifosfamide in water: about 10 % by weight
